Results published in the supplement of paper PMC8671470.

system: Mono-Mac-6; assay: cell viability (% survival relative to DMSO control); higher = less cytotoxic; conditions: drug1 concentration 500 nM; drug2 concentration 50 nM; 72 h
Method: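 8x8 drug-combination matrices (0–5000 nM; rosiglitazone and lestaurtinib 0–1000 nM) were run in Mono-Mac-6 cells for 72 h with CellTiter-Glo read-out. Survival is normalised to DMSO and 10 µM bortezomib and clipped at 100%.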

Compound	cell viability
O=C(C1CC1)N1CC[C@@H](C=C2NNC(=O)N2c2ccc(-c3ccc4occc4c3)cc2)C1 + O=C(c1c2ccccc2cc2ccccc12)N1CCC(N2CCC[C@@H](C(=O)N3CCOCC3)C2)CC1 [CP-640186]	> 100%
CC(C)c1onc(-c2c(Cl)cccc2Cl)c1COc1ccc(/C=C/c2cccc(C(=O)O)c2)c(Cl)c1 [GW4064] + Cn1cc(-c2ccncc2)c(-c2ccc(OCc3ccc4ccccc4n3)cc2)n1 [PF-02545920]	97.2%

same assay, conditions: drug1 concentration 500 nM; drug2 concentration 100 nM; 72 h

Compound	cell viability
O=C(C1CC1)N1CC[C@@H](C=C2NNC(=O)N2c2ccc(-c3ccc4occc4c3)cc2)C1 + CS(=O)(=O)N1CCN(Cc2cc3nc(-c4cccc5[nH]ncc45)nc(N4CCOCC4)c3s2)CC1 [Pictilisib]	> 100%
O=C(C1CC1)N1CC[C@@H](C=C2NNC(=O)N2c2ccc(-c3ccc4occc4c3)cc2)C1 + C[C@H](NC(=O)c1sccc1OCc1ccc(Cl)cc1)c1ccccc1 [as1949490]	77.3%
O=C(C1CC1)N1CC[C@@H](C=C2NNC(=O)N2c2ccc(-c3ccc4occc4c3)cc2)C1 + O=C(c1c2ccccc2cc2ccccc12)N1CCC(N2CCC[C@@H](C(=O)N3CCOCC3)C2)CC1 [CP-640186]	> 100%
CC(C)c1onc(-c2c(Cl)cccc2Cl)c1COc1ccc(/C=C/c2cccc(C(=O)O)c2)c(Cl)c1 [GW4064] + Cn1cc(-c2ccncc2)c(-c2ccc(OCc3ccc4ccccc4n3)cc2)n1 [PF-02545920]	> 100%

same assay, conditions: drug1 concentration 500 nM; drug2 concentration 500 nM; 72 h

Compound	cell viability
O=C(C1CC1)N1CC[C@@H](C=C2NNC(=O)N2c2ccc(-c3ccc4occc4c3)cc2)C1 + CS(=O)(=O)N1CCN(Cc2cc3nc(-c4cccc5[nH]ncc45)nc(N4CCOCC4)c3s2)CC1 [Pictilisib]	73%
O=C(C1CC1)N1CC[C@@H](C=C2NNC(=O)N2c2ccc(-c3ccc4occc4c3)cc2)C1 + C[C@H](NC(=O)c1sccc1OCc1ccc(Cl)cc1)c1ccccc1 [as1949490]	> 100%
O=C(C1CC1)N1CC[C@@H](C=C2NNC(=O)N2c2ccc(-c3ccc4occc4c3)cc2)C1 + O=C(c1c2ccccc2cc2ccccc12)N1CCC(N2CCC[C@@H](C(=O)N3CCOCC3)C2)CC1 [CP-640186]	> 100%
CC(C)c1onc(-c2c(Cl)cccc2Cl)c1COc1ccc(/C=C/c2cccc(C(=O)O)c2)c(Cl)c1 [GW4064] + Cn1cc(-c2ccncc2)c(-c2ccc(OCc3ccc4ccccc4n3)cc2)n1 [PF-02545920]	94.8%

same assay, conditions: drug1 concentration 500 nM; drug2 concentration 1000 nM; 72 h

Compound	cell viability
O=C(C1CC1)N1CC[C@@H](C=C2NNC(=O)N2c2ccc(-c3ccc4occc4c3)cc2)C1 + CS(=O)(=O)N1CCN(Cc2cc3nc(-c4cccc5[nH]ncc45)nc(N4CCOCC4)c3s2)CC1 [Pictilisib]	71.3%
O=C(C1CC1)N1CC[C@@H](C=C2NNC(=O)N2c2ccc(-c3ccc4occc4c3)cc2)C1 + C[C@H](NC(=O)c1sccc1OCc1ccc(Cl)cc1)c1ccccc1 [as1949490]	77.3%
O=C(C1CC1)N1CC[C@@H](C=C2NNC(=O)N2c2ccc(-c3ccc4occc4c3)cc2)C1 + O=C(c1c2ccccc2cc2ccccc12)N1CCC(N2CCC[C@@H](C(=O)N3CCOCC3)C2)CC1 [CP-640186]	> 100%
CC(C)c1onc(-c2c(Cl)cccc2Cl)c1COc1ccc(/C=C/c2cccc(C(=O)O)c2)c(Cl)c1 [GW4064] + Cn1cc(-c2ccncc2)c(-c2ccc(OCc3ccc4ccccc4n3)cc2)n1 [PF-02545920]	96.1%

same assay, conditions: drug1 concentration 500 nM; drug2 concentration 5000 nM; 72 h

Compound	cell viability
O=C(C1CC1)N1CC[C@@H](C=C2NNC(=O)N2c2ccc(-c3ccc4occc4c3)cc2)C1 + CS(=O)(=O)N1CCN(Cc2cc3nc(-c4cccc5[nH]ncc45)nc(N4CCOCC4)c3s2)CC1 [Pictilisib]	49.9%
O=C(C1CC1)N1CC[C@@H](C=C2NNC(=O)N2c2ccc(-c3ccc4occc4c3)cc2)C1 + C[C@H](NC(=O)c1sccc1OCc1ccc(Cl)cc1)c1ccccc1 [as1949490]	73.3%
O=C(C1CC1)N1CC[C@@H](C=C2NNC(=O)N2c2ccc(-c3ccc4occc4c3)cc2)C1 + O=C(c1c2ccccc2cc2ccccc12)N1CCC(N2CCC[C@@H](C(=O)N3CCOCC3)C2)CC1 [CP-640186]	81.6%
CC(C)c1onc(-c2c(Cl)cccc2Cl)c1COc1ccc(/C=C/c2cccc(C(=O)O)c2)c(Cl)c1 [GW4064] + Cn1cc(-c2ccncc2)c(-c2ccc(OCc3ccc4ccccc4n3)cc2)n1 [PF-02545920]	96.5%

same assay, conditions: drug1 concentration 1000 nM; drug2 concentration 5 nM; 72 h

Compound	cell viability
O=C(C1CC1)N1CC[C@@H](C=C2NNC(=O)N2c2ccc(-c3ccc4occc4c3)cc2)C1 + CS(=O)(=O)N1CCN(Cc2cc3nc(-c4cccc5[nH]ncc45)nc(N4CCOCC4)c3s2)CC1 [Pictilisib]	81.2%
O=C(C1CC1)N1CC[C@@H](C=C2NNC(=O)N2c2ccc(-c3ccc4occc4c3)cc2)C1 + C[C@H](NC(=O)c1sccc1OCc1ccc(Cl)cc1)c1ccccc1 [as1949490]	88.6%
O=C(C1CC1)N1CC[C@@H](C=C2NNC(=O)N2c2ccc(-c3ccc4occc4c3)cc2)C1 + O=C(c1c2ccccc2cc2ccccc12)N1CCC(N2CCC[C@@H](C(=O)N3CCOCC3)C2)CC1 [CP-640186]	88.8%
CC(C)c1onc(-c2c(Cl)cccc2Cl)c1COc1ccc(/C=C/c2cccc(C(=O)O)c2)c(Cl)c1 [GW4064] + Cn1cc(-c2ccncc2)c(-c2ccc(OCc3ccc4ccccc4n3)cc2)n1 [PF-02545920]	88.9%

same assay, conditions: drug1 concentration 1000 nM; drug2 concentration 10 nM; 72 h

Compound	cell viability
O=C(C1CC1)N1CC[C@@H](C=C2NNC(=O)N2c2ccc(-c3ccc4occc4c3)cc2)C1 + CS(=O)(=O)N1CCN(Cc2cc3nc(-c4cccc5[nH]ncc45)nc(N4CCOCC4)c3s2)CC1 [Pictilisib]	81.2%
O=C(C1CC1)N1CC[C@@H](C=C2NNC(=O)N2c2ccc(-c3ccc4occc4c3)cc2)C1 + C[C@H](NC(=O)c1sccc1OCc1ccc(Cl)cc1)c1ccccc1 [as1949490]	98.4%
O=C(C1CC1)N1CC[C@@H](C=C2NNC(=O)N2c2ccc(-c3ccc4occc4c3)cc2)C1 + O=C(c1c2ccccc2cc2ccccc12)N1CCC(N2CCC[C@@H](C(=O)N3CCOCC3)C2)CC1 [CP-640186]	> 100%
CC(C)c1onc(-c2c(Cl)cccc2Cl)c1COc1ccc(/C=C/c2cccc(C(=O)O)c2)c(Cl)c1 [GW4064] + Cn1cc(-c2ccncc2)c(-c2ccc(OCc3ccc4ccccc4n3)cc2)n1 [PF-02545920]	94.3%

same assay, conditions: drug1 concentration 1000 nM; drug2 concentration 50 nM; 72 h

Compound	cell viability
O=C(C1CC1)N1CC[C@@H](C=C2NNC(=O)N2c2ccc(-c3ccc4occc4c3)cc2)C1 + CS(=O)(=O)N1CCN(Cc2cc3nc(-c4cccc5[nH]ncc45)nc(N4CCOCC4)c3s2)CC1 [Pictilisib]	99%
O=C(C1CC1)N1CC[C@@H](C=C2NNC(=O)N2c2ccc(-c3ccc4occc4c3)cc2)C1 + C[C@H](NC(=O)c1sccc1OCc1ccc(Cl)cc1)c1ccccc1 [as1949490]	91.8%
O=C(C1CC1)N1CC[C@@H](C=C2NNC(=O)N2c2ccc(-c3ccc4occc4c3)cc2)C1 + O=C(c1c2ccccc2cc2ccccc12)N1CCC(N2CCC[C@@H](C(=O)N3CCOCC3)C2)CC1 [CP-640186]	> 100%
CC(C)c1onc(-c2c(Cl)cccc2Cl)c1COc1ccc(/C=C/c2cccc(C(=O)O)c2)c(Cl)c1 [GW4064] + Cn1cc(-c2ccncc2)c(-c2ccc(OCc3ccc4ccccc4n3)cc2)n1 [PF-02545920]	66.9%

same assay, conditions: drug1 concentration 1000 nM; drug2 concentration 100 nM; 72 h

Compound	cell viability
O=C(C1CC1)N1CC[C@@H](C=C2NNC(=O)N2c2ccc(-c3ccc4occc4c3)cc2)C1 + CS(=O)(=O)N1CCN(Cc2cc3nc(-c4cccc5[nH]ncc45)nc(N4CCOCC4)c3s2)CC1 [Pictilisib]	94.4%
O=C(C1CC1)N1CC[C@@H](C=C2NNC(=O)N2c2ccc(-c3ccc4occc4c3)cc2)C1 + C[C@H](NC(=O)c1sccc1OCc1ccc(Cl)cc1)c1ccccc1 [as1949490]	> 100%
O=C(C1CC1)N1CC[C@@H](C=C2NNC(=O)N2c2ccc(-c3ccc4occc4c3)cc2)C1 + O=C(c1c2ccccc2cc2ccccc12)N1CCC(N2CCC[C@@H](C(=O)N3CCOCC3)C2)CC1 [CP-640186]	91.2%
CC(C)c1onc(-c2c(Cl)cccc2Cl)c1COc1ccc(/C=C/c2cccc(C(=O)O)c2)c(Cl)c1 [GW4064] + Cn1cc(-c2ccncc2)c(-c2ccc(OCc3ccc4ccccc4n3)cc2)n1 [PF-02545920]	> 100%

same assay, conditions: drug1 concentration 1000 nM; drug2 concentration 500 nM; 72 h

Compound	cell viability
O=C(C1CC1)N1CC[C@@H](C=C2NNC(=O)N2c2ccc(-c3ccc4occc4c3)cc2)C1 + CS(=O)(=O)N1CCN(Cc2cc3nc(-c4cccc5[nH]ncc45)nc(N4CCOCC4)c3s2)CC1 [Pictilisib]	86.2%
O=C(C1CC1)N1CC[C@@H](C=C2NNC(=O)N2c2ccc(-c3ccc4occc4c3)cc2)C1 + C[C@H](NC(=O)c1sccc1OCc1ccc(Cl)cc1)c1ccccc1 [as1949490]	> 100%
O=C(C1CC1)N1CC[C@@H](C=C2NNC(=O)N2c2ccc(-c3ccc4occc4c3)cc2)C1 + O=C(c1c2ccccc2cc2ccccc12)N1CCC(N2CCC[C@@H](C(=O)N3CCOCC3)C2)CC1 [CP-640186]	> 100%
